How the values were obtained:
[1] = tested on: normal skin fibroblast cell line GM38
Protocol: (§1) To confirm, baseline toxicity experiments were conducted with the fully assembled nanoparticles and its constituents. […] MTT assays detected changes in cell proliferation and viability.

[2] = tested on: prostate cancer cell line DU145
Protocol: as §1

[3] = tested on: prostate cancer cell line PC3
Protocol: as §1

Measured: baseline cytotoxicity over increasing doses

C=CC1=C(C)c2cc3[nH]c(cc4nc(cc5[nH]c(cc1n2)c(C)c5CCC(=O)O)C(CCC(=O)O)=C4C)c(C)c3C=C [PPIX, protoporphyrin IX]
No appreciable differences: all assays above

— US20210268129A1, “Theranostic Radiophotodynamic Therapy Nanoparticles” (priority 2018, published 2021)
